Consider 15 molecules from PubChem BioAssay (NCI).

Several values for one entry are separate records, joined by “and”; a condition that tells them apart may be missing. Equal values may be shown once.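 Interpolation was linear, between the two tested concentrations surrounding the appropriate level; five concentrations were tested over 48 hours in 96-well plates. Abbreviation: GI50, concentration required for 50% inhibition of growth. The concentration for full growth arrest is given as TGI.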 A value given as a limit tells only on which side of the number the result lay.

Among the test systems are UACC-62 melanoma; RPMI-8226 leukemia; TK-10 renal; HCT-15 colon; COLO 205 colon; K-562 leukemia; HCC-2998 colon; SNB-19 CNS; CCRF-CEM leukemia; NCI/ADR-RES ovarian.
What all share (experiment): growth of human tumour cells (NCI), 48 h

For `CCCCCCCCCCCC(=O)OCCOCCOCCOCCOCCOCc1ccc(OC)cc1`, the TGI in the test on UACC-62 melanoma, with RPMI-8226 leukemia, with TK-10 renal, with HCT-15 colon, with COLO 205 colon and in the test on K-562 leukemia was over 100 µM in each case. The TGI with HCC-2998 colon, in the test on SNB-19 CNS and in the test on CCRF-CEM leukemia was over 100 µM each time.
`CCOC(=O)C1Oc2ccc([N+](=O)[O-])c3c2C1(O)CCC3` (configuration not stated): the TGI in the test with UACC-62 melanoma, with RPMI-8226 leukemia, in the test on TK-10 renal, in the test with HCT-15 colon, in the test with COLO 205 colon and in the test with K-562 leukemia was over 100 µM throughout. Besides, the TGI in the test with HCC-2998 colon, with SNB-19 CNS and in the test on CCRF-CEM leukemia was over 100 µM each time.
In the case of `N#CC(C(=O)CCC(=O)Nc1cccc(Cl)c1)c1ccccc1` (configuration not stated), the TGI in the test with UACC-62 melanoma, with RPMI-8226 leukemia, with TK-10 renal, in the test on HCT-15 colon, in the test with COLO 205 colon and in the test with K-562 leukemia was over 100 µM throughout. The TGI with HCC-2998 colon, with SNB-19 CNS and with CCRF-CEM leukemia was over 100 µM in each case.
As for `CCCCCCc1cc(C(=O)Nc2cccc(C(F)(F)F)c2)nc(N)n1`, the TGI with UACC-62 melanoma, in the test with RPMI-8226 leukemia, in the test on TK-10 renal, with HCT-15 colon, in the test on COLO 205 colon and in the test with K-562 leukemia was over 100 µM in each case. The TGI in the test with HCC-2998 colon, in the test with SNB-19 CNS and in the test on CCRF-CEM leukemia was over 100 µM throughout.
With `CSCC1CC(c2ccc(Cl)cc2)=NO1` (configuration not stated), the TGI in the test with UACC-62 melanoma, with RPMI-8226 leukemia, in the test with TK-10 renal, with HCT-15 colon, with COLO 205 colon and with K-562 leukemia was over 100 µM in each case. Besides, the TGI with HCC-2998 colon and in the test with CCRF-CEM leukemia was over 100 µM each time.
In the case of `C[Si](C)(C)OC1(C#N)C2C3CC4C2C(=O)C2C4C3C21` (configuration not stated), the TGI in the test on UACC-62 melanoma, with RPMI-8226 leukemia, with TK-10 renal, in the test on HCT-15 colon, with COLO 205 colon and in the test with K-562 leukemia was over 100 µM throughout. Moreover, the TGI with HCC-2998 colon, in the test on SNB-19 CNS and in the test with CCRF-CEM leukemia was over 100 µM each time.
`CS(=O)(=O)c1ccc(C(=O)Nc2ccc(Cl)c(-c3ccccn3)c2)c(Cl)c1`: the TGI in the test on RPMI-8226 leukemia was > 100 µM and 10.6 µM; with TK-10 renal it was > 100 µM and 34.7 µM; with HCT-15 colon it was > 100 µM and 21.2 µM; in the test on K-562 leukemia, > 100 µM and 45.7 µM; in the test on NCI/ADR-RES ovarian, > 100 µM and 25.7 µM; in the test on SNB-19 CNS, over 100 µM. Moreover, the TGI with CCRF-CEM leukemia is over 100 µM.
With `c1ccc(SC(CCCCC(Sc2ccccc2)Sc2ccccc2)Sc2ccccc2)cc1`, the TGI in the test on UACC-62 melanoma, with RPMI-8226 leukemia, in the test on TK-10 renal, with HCT-15 colon, in the test with COLO 205 colon and in the test with K-562 leukemia was over 100 µM throughout. The TGI with HCC-2998 colon, with SNB-19 CNS and with CCRF-CEM leukemia was over 100 µM throughout.
`Cc1cc(N(CCC#N)CCC#N)ccc1/C=C/C(=O)Nc1cccc(Cl)c1`: the TGI in the test on UACC-62 melanoma, with RPMI-8226 leukemia, in the test with TK-10 renal, in the test with HCT-15 colon, in the test with COLO 205 colon and in the test on K-562 leukemia was over 100 µM in each case. The TGI with HCC-2998 colon, with SNB-19 CNS and in the test on CCRF-CEM leukemia was over 100 µM in each case.
Regarding `C=C1COC(/C=C(\C)CC/C=C(\C)CCl)C1` (configuration not stated), the TGI with UACC-62 melanoma, in the test on RPMI-8226 leukemia, in the test with TK-10 renal, in the test on HCT-15 colon, with COLO 205 colon and with K-562 leukemia was over 100 µM each time. Moreover, the TGI in the test with HCC-2998 colon, in the test with SNB-19 CNS and in the test on CCRF-CEM leukemia was over 100 µM each time.
Turning to `COc1ccc(N=c2ssc3c(=S)ssc23)cc1`, the TGI in the test with UACC-62 melanoma is 61.8 µM; in the test with RPMI-8226 leukemia it was 38.3 µM; in the test with TK-10 renal it was over 100 µM; in the test on HCT-15 colon, 52.5 µM; in the test with K-562 leukemia, 22.5 µM; in the test with HCC-2998 colon, over 100 µM. In addition, the TGI in the test on CCRF-CEM leukemia worked out at 28.2 µM.
As for `Cn1cnc2nc(Cl)nc(NC(C)(C)C(C)(C)O)c21`, the TGI in the test on UACC-62 melanoma, in the test with RPMI-8226 leukemia, with TK-10 renal, in the test with HCT-15 colon, with COLO 205 colon and in the test on K-562 leukemia was over 100 µM in each case. Besides, the TGI in the test with HCC-2998 colon, in the test with SNB-19 CNS and with CCRF-CEM leukemia was over 100 µM in each case.
Take `O=C(O)C1(P(=O)(O)O)CC1`: the TGI with UACC-62 melanoma, with RPMI-8226 leukemia, in the test with TK-10 renal, in the test on HCT-15 colon, with COLO 205 colon and in the test on K-562 leukemia was over 100 µM in each case. Also, the TGI in the test with HCC-2998 colon, in the test on SNB-19 CNS and in the test on CCRF-CEM leukemia was over 100 µM in each case.
Consider `O=C1OC(CCCl)(c2ccccc2)CC1CN1CCOCC1` (configuration not stated), for which the TGI with UACC-62 melanoma turned out to be 49.4 µM; in the test on RPMI-8226 leukemia, 27.9 µM; in the test with TK-10 renal it was 30.5 µM; with HCT-15 colon, 55.5 µM; with COLO 205 colon, 35.4 µM; in the test with K-562 leukemia it was 61.3 µM. The values for the TGI in the test on HCC-2998 colon and in the test with CCRF-CEM leukemia were over 100 µM and 41.6 µM, respectively.
`N/C(=N\N=C\c1ccc(-c2ccccc2)cc1)N[N+](=O)[O-]`: the GI50 was 0.771 µM in the test with UACC-62 melanoma; 4.04 µM with RPMI-8226 leukemia; over 100 µM in the test on TK-10 renal; 2.03 µM in the test with HCT-15 colon; 3.38 µM in the test with COLO 205 colon; 0.481 µM in the test with K-562 leukemia. In addition, the GI50 was 1.46 µM with NCI/ADR-RES ovarian and 3.1 µM in the test on CCRF-CEM leukemia. The TGI in the test with UACC-62 melanoma is over 100 µM; in the test on RPMI-8226 leukemia, over 100 µM; in the test on TK-10 renal, over 100 µM; in the test with HCT-15 colon it was over 100 µM; in the test on COLO 205 colon, over 42.1 µM; in the test on K-562 leukemia, over 100 µM. Moreover, the TGI with NCI/ADR-RES ovarian is over 86.1 µM; in the test with SNB-19 CNS, over 100 µM; with CCRF-CEM leukemia it was over 100 µM.
